Results on 13 compounds are retold here after publication PMC11617876 (Heliyon, 2024).

Data set [1] deals with carrageenan-induced paw edema. Description: carrageenan-induced rat paw edema, in vivo anti-inflammatory activity. The note with it: diclofenac sodium = 1. On the technique in general: Carrageenan injected into the paw causes an acute inflammation.
The next data set deals with albino rats. Nature of the data set: acute toxicity studies. In kind it is in vivo, rat. The note with it: oral.

SMILES strings stand for the structures.

As to `O=[N+]([O-])c1ccc(-c2nocc2-c2ccccc2)cc1` [5f, 3-(4-Nitro-phenyl)-4-phenyl-isoxazole], the Effectiveness in data set [1] worked out at 0.66.

In the case of `O=C(O)Cc1ccccc1Nc1c(Cl)cccc1Cl` [Diclofenac sodium, reference compound], the Effectiveness in data set [1] is on record as 1.

As for `Fc1ccc(-c2nocc2-c2ccccc2)cc1` [5j, 3-(4-Fluoro-phenyl)-4-phenyl-isoxazole], the Effectiveness in data set [1] came out at 0.80.

Turning to `COc1ccccc1-c1nocc1-c1ccccc1` [5k, 3-(2-Methoxy-phenyl)-4-phenyl-isoxazole], the Effectiveness in data set [1] came out at 0.09.

Regarding `O=[N+]([O-])c1cccc(-c2nocc2-c2ccccc2)c1` [5e, 3-(3-Nitro-phenyl)-4-phenyl-isoxazole], the Effectiveness in data set [1] is given as 0.16.

In data set [1], `Clc1ccc(-c2nocc2-c2ccccc2)cc1` [5b, 3-(4-Chloro-phenyl)-4-phenyl-isoxazole] yielded an Effectiveness of 0.83. Moreover, the “toxicity in laboratory tests” value in the data set on albino rats is reported as “low toxicity”.

In the case of `Oc1cccc(-c2nocc2-c2ccccc2)c1` [5d, 3-(4-Phenyl-isoxazol-3-yl)-phenol], in data set [1], the Effectiveness came out at 0.71. Moreover, the “toxicity in laboratory tests” value with albino rats is on record as “low toxicity”.

Turning to `Brc1ccc(-c2nocc2-c2ccccc2)cc1` [5h, 3-(4-Bromo-phenyl)-4-phenyl-isoxazole], in data set [1], the Effectiveness turned out to be 0.02.

As for `Oc1ccc(-c2nocc2-c2ccccc2)cc1` [5c, 4-(4-Phenyl-isoxazol-3-yl)-phenol], the Effectiveness in data set [1] came out at 0.81. For the same compound, the “toxicity in laboratory tests” value with albino rats is recorded as “low toxicity”.

In data set [1], `COc1ccc(-c2nocc2-c2ccccc2)cc1` [5m, 3-(4-Methoxy-phenyl)-4-phenyl-isoxazole] yielded an Effectiveness of 0.63.

`COc1cccc(-c2nocc2-c2ccccc2)c1` [5l, 3-(3-Methoxy-phenyl)-4-phenyl-isoxazole] displayed an Effectiveness in data set [1] of 0.57.

Consider `Brc1cccc(-c2nocc2-c2ccccc2)c1` [5g, 3-(3-Bromo-phenyl)-4-phenyl-isoxazole], for which the Effectiveness in data set [1] was 0.22.

`Clc1cccc(-c2nocc2-c2ccccc2)c1` [5i, 3-(3-Chloro-phenyl)-4-phenyl-isoxazole] displayed an Effectiveness in data set [1] of 0.55.
